Measurements: PubChem BioAssay AID1408 (University of Pittsburgh Molecular Library Screening Center, 2008)

biological target: Serine/threonine-protein kinase D1 (Homo sapiens) (UniProt Q15139); assay: PKD1 kinase inhibitors, IC50 values, dose response, biochemical, fluorescence polarization (AID 1408); conditions: not given
Sequence (Q15139 whole entry, looked up): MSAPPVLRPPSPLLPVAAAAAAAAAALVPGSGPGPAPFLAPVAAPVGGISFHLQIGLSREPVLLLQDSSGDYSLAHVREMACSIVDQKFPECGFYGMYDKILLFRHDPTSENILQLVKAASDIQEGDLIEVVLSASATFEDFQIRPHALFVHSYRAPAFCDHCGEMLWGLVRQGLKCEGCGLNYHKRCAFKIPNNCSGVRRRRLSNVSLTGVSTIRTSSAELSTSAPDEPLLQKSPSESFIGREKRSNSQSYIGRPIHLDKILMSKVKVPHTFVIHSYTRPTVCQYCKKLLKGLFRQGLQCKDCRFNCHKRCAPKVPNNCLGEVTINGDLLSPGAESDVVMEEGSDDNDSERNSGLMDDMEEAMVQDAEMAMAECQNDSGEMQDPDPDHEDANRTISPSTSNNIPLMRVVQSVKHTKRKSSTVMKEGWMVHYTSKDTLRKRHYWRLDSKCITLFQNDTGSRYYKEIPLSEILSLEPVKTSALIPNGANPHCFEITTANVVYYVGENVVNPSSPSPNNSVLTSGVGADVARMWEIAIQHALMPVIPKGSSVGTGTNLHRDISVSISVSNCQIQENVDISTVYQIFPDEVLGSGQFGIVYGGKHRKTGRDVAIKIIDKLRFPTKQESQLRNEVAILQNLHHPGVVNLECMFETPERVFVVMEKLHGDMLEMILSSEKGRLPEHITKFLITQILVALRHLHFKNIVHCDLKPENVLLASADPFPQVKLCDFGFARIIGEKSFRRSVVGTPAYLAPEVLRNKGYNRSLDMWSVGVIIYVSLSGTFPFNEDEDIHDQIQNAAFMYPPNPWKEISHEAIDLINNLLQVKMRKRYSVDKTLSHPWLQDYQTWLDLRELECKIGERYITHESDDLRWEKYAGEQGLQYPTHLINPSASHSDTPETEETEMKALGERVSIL

Compound	IC50 [µM]
C/C(=N\Nc1ncc(Cl)cc1Cl)c1ccccn1	9.31
Clc1cncc(Cl)c1N/N=C/c1ccncc1	9.61

same assay, conditions: inhibition, at 50 µM, stronger effect = higher value

Compound	inhibition [%]
C/C(=N\Nc1ncc(Cl)cc1Cl)c1ccccn1	65.6
CSc1ccccc1C(=O)NCc1ccc(F)cc1	1.94
O=C(CSc1ccc2nnc(-c3cccnc3)n2n1)c1ccccc1	-0.442
NC(=O)c1cn(C2OC(CO)C(O)C2O)c2ncnc(N)c12 (stereo unspecified)	102
O=C1CSCN1c1cc(Cl)ccc1Cl	1.32
COc1ccc(CNC(=O)C2Cc3ccccc3CN2C(=O)c2ccco2)cc1 (stereo unspecified)	9.09
Cn1cccc1C(=O)NC(=O)COC(=O)c1cc(S(=O)(=O)N2CCCCC2)ccc1Cl	-3.91
O=C(NNC1=Nc2cccc3cccc1c23)c1ccc(Br)cc1	-3.67
CCOC(=O)c1sc(=NC(=O)CCS(=O)(=O)c2ccccc2)n(C)c1C	-2.41
O=[N+]([O-])c1ccc(Nc2c3ccccc3nc3ccccc23)cc1	-1.2
CC1Cc2ccccc2N1c1ncnc(N)c1[N+](=O)[O-] (stereo unspecified)	76.8
O=C(O)c1cc(C(=O)C2CCCCC2)c[nH]1	3.08
NC(N)=NC(=O)c1nc(Cl)c(N)nc1N	96.6
O=C1NCCCc2c1oc1ccc(O)cc21	101
Clc1cncc(Cl)c1N/N=C/c1ccncc1	83.8
CS(=O)(=O)N1CCN(c2ccccc2NC(=O)c2ccc(Br)o2)CC1	15.2
CC(=O)Oc1cc(OC(C)=O)c2c(C)cc(=O)oc2c1	29
O=C(Nc1ccc(CN2CCOCC2)cc1)c1ccc(-c2cccc(Cl)c2)o1	96.2
Cc1cc(NC(=O)CCC(=O)N(Cc2ccco2)C(C(=O)NCC2CCCO2)c2ccncc2)no1 (stereo unspecified)	-0.875
O=C(Nc1ccccc1C(=O)N1CCCC1)C1COc2ccccc2O1 (stereo unspecified)	1.87
CCCc1cc(=O)[nH]c(SCCCCN2C(=O)c3ccccc3C2=O)n1	0.534
CCC1=NNc2cccc3c(OC)ccc1c23	67
Nc1nc2ccc([N+](=O)[O-])c(N)c2s1	95.9
COc1ccc(Cn2c(=O)[nH]c3cc(C(=O)NC4CCCC4)ccc3c2=O)cc1	14.8
O=C(CSc1ccncc1)Nc1ccc2ccccc2c1	-4.61
CCC(=O)Nc1c2c(nn1-c1ccccc1C)CSC2	-1.23
Cc1cc(NCCCN)nc(-c2ccccc2O)n1	94.4
COC(=O)c1c(NC(=O)C2C3CCC(C3)C2C(=O)O)sc2c1CCCCC2 (stereo unspecified)	7.89
Cc1c(C#N)c(N)nc(Cl)c1C#N	5.41
